Measurements published in patent US9309224B2 (Deciphera Pharmaceuticals, LLC, priority 2013, dated 2016).

Experiments:
[1] = target: T1, unphosphorylated c-FMS kinase (uFMS, Seq. ID no. 1) (Homo sapiens, UniProt P07333); assay: uFMS kinase assay (pyruvate kinase/lactate dehydrogenase coupled); format: biochemical; conditions: ATP 500 μM
T1 construct: purchased Millipore
T1 sequence (P07333 538-972): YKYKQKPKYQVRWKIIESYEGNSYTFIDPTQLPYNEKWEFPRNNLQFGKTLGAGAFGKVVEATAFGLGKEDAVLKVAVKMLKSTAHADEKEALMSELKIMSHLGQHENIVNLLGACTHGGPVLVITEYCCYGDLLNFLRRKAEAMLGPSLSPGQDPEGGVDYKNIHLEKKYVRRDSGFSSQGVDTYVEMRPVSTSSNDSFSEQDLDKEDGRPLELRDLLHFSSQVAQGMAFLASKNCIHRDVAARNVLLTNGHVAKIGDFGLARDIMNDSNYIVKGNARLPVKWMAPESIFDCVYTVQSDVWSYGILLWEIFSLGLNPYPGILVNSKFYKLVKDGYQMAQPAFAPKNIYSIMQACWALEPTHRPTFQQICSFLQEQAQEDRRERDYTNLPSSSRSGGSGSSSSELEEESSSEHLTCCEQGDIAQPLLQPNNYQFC

[2] = target: T2, unphosphorylated c-KIT kinase (uKIT, Seq. ID no. 2) (Homo sapiens, UniProt P10721); assay: uKit kinase assay (pyruvate kinase/lactate dehydrogenase coupled); format: biochemical; conditions: ATP 2000 μM
T2 construct: uKit with N-terminal GST fusion used for
Experimental: In this assay, the oxidation of NADH (thus the decrease at A340 nm) was continuously monitored spectrophometrically. […] The inhibition reaction was started by mixing serial diluted test compound with the above reaction mixture. The absorption at 340 nm was monitored continuously for 4 hours at 30° C. on Synergy 2 plate reader (BioTech).

[3] = target: T3, unphosphorylated PDGFRβ kinase (uPDGFRβ, Seq. ID No. 3) (Homo sapiens, UniProt P09619); assay: Unphosphorylated PDGFRβ kinase assay (pyruvate kinase/lactate dehydrogenase coupled); format: biochemical; conditions: ATP 500 μM
T3 construct: purchased DeCode
Text: Unphosyhorylated PDGFRβ (uPDGFRβkinase (Seq. ID No. 3) assay

[4] = tested on: M-NFS-60 cells; assay: M-NFS-60 cell proliferation assay; format: cell-based; conditions: 67 h incubation, resazurin
Experimental: M-NFS-60 Cell Proliferation Assay A serial dilution of test compound was dispensed into a 384-well black clear bottom plate (Corning, Corning, N.Y.). Two thousand five hundred cells were added per well in 50 μL complete growth medium. […] IC50 values were calculated from a series of percent inhibition values determined at a range of inhibitor concentrations using software routines as implemented in the GraphPad Prism software package.

[5] = tested on: osteoclast precursors; assay: Osteoclast tartrate-resistant acid phosphatase assay; format: cell-based; conditions: Osteoclast; 7-14 days, RANKL and M-CSF
[6] = target: T4, phospho-FMS in THP-1 cells (Homo sapiens, UniProt P07333); assay: Phospho-FMS ELISA assay in THP-1 cells; format: cell-based; conditions: 4 hours compound, M-CSF stimulated; read-out: pFMS inhibition in THP-1 cells
T4 construct: endogenous in cells; host or cells: THP-1 (ATCC TIB-202)
Experimental: In a separate 96 well black clear bottom plate, one hundred and fifty thousand THP-1 cells were added per well in 100 μL in assay medium. Fifty microliters of diluted compound was then added to the cells. […] Lysates were prepared and used to perform the phospho-FMS ELISA as described by the manufacturer (catalog #DYC3268, R & D Systems, Minneapolis, Minn.). GraphPad Prism was used to calculate IC50 values obtained from data generated from the ELISA assay.

[7] = tested on: c-FMS; assay: cFOS mRNA production in a c-FMS mouse spleen pharmacodynamic model; format: in vivo; conditions: out to 8 h post 30 mg/kg single oral dose, read-out: inhibition of cFOS mRNA levels
Experimental: Analysis of cFOS mRNA Production in a c-FMS Mouse Spleen Pharmacodynamic Model To examine the in vivo modulation of FMS activity by compounds of formula I, spleen samples from female DBA/1 mice were collected and analyzed for M-CSF stimulated production of cFOS mRNA. Briefly, six to seven week old female Taconic DBA/1BO J Bom Tac mice were treated with a single oral dose (by gavage) of either vehicle or compound. Plasma and spleen samples are collected from four mice at each timepoint 2, 4, 6, 8, 12, 18, and 24 hours after dosing. Fifteen minutes prior to euthanasia, all mice were injected IV with 1 μg (100 μL fixed volume) of M-CSF. M-CSF, Recombinant Mouse Macrophage Colony Stimulating Factor (36.4 kDa homodimer, ≧98% purity) was obtained from Gibco. All procedures carried out in this experiment were conducted in compliance with all the laws, regulations and guidelines of the National Institutes of Health (NIH). cFOS mRNA levels in spleen extracts were determined using a quantitative reverse transcriptase PCR kit from Life Technologies. Plasma levels of FMS inhibitors were determined by mass spectrometer analysis. The degree of FMS inhibition was correlative to the amount of decrease observed in cFOS mRNA levels in the spleen samples of treated animals compared to vehicle.

T4 sequence (P07333 20-972): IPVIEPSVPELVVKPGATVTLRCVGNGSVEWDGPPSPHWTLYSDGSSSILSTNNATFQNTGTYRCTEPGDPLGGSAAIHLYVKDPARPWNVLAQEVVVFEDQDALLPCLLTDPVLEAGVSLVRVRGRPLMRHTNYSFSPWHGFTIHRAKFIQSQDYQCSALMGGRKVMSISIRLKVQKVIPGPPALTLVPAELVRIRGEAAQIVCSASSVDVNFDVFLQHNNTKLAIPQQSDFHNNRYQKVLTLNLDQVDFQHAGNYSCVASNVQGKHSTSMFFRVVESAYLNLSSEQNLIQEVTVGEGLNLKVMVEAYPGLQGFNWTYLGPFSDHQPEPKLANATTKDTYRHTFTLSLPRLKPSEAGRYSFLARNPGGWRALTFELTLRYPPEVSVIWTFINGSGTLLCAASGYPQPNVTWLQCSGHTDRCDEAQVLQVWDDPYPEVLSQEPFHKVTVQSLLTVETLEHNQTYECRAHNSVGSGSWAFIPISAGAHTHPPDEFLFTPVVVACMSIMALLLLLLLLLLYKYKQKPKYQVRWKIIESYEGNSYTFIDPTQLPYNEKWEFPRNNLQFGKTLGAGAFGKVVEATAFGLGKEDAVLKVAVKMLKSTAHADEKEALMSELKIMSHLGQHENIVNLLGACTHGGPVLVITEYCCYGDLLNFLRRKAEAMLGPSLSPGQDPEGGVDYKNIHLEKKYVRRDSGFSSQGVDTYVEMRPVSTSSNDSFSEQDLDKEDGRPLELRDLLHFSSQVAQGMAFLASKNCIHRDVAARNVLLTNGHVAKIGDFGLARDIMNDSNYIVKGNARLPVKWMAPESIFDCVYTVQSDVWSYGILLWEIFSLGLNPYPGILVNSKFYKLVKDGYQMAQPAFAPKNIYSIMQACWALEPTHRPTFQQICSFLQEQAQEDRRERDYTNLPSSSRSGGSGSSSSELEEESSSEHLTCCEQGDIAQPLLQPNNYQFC
T3 sequence (P09619 557-1105): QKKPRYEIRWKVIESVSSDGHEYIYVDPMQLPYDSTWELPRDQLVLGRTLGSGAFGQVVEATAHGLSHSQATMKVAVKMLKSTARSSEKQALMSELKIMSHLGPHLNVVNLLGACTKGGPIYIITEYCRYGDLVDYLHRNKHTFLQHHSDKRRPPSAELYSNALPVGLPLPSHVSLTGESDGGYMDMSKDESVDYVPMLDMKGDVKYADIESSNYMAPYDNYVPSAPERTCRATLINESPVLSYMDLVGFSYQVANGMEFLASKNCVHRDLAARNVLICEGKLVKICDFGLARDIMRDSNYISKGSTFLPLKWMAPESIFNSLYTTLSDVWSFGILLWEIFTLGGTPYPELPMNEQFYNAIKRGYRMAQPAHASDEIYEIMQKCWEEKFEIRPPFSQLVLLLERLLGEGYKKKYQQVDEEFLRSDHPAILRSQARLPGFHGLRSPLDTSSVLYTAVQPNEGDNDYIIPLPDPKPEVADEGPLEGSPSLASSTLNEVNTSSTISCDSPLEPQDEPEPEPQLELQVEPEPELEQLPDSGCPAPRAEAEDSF
T2 sequence (P10721 with tags, fused parts or gaps): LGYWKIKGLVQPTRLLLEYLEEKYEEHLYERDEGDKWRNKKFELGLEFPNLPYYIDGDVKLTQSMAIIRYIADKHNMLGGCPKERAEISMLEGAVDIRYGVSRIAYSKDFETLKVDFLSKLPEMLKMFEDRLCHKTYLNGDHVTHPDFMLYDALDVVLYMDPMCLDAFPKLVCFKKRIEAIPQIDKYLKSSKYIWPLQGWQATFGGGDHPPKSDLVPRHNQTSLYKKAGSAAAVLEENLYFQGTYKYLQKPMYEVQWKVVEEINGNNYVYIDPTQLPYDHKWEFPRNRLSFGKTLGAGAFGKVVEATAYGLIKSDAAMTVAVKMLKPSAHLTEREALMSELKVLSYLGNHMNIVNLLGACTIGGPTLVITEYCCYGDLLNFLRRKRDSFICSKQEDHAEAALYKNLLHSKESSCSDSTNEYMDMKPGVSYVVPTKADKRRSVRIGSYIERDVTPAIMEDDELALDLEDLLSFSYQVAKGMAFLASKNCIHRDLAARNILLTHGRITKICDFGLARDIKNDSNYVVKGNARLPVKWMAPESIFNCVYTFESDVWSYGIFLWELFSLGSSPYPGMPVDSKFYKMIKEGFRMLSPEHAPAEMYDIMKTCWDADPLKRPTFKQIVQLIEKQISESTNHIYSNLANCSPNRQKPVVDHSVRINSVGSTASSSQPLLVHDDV

| Structure (SMILES) | IC50 [1] [nM] | IC50 [2] [nM] | IC50 [3] [nM] | IC50 [4] [nM] | IC50 [5] [nM] | IC50 [6] [nM] | inhibition in vivo at 30 mg/kg [7] [%] |
| --- | --- | --- | --- | --- | --- | --- | --- |
| CNC(=O)c1cc(Oc2ccc(NC(=O)NC(=O)C3(C)CCOCC3)nc2)ccn1 [Example 70, N-methyl-4-((6-(3-(4-methyltetrahydro-2H-pyran-4-carbonyl)ureido)pyridin-3-yl)oxy)picolinamide] | 100 to 1000 | > 1000 | > 1000 | 100 to 1000 | 10 to 100 | 10 to 100 |  |
| Cc1nc(NC(=O)NC(=O)C(C)(C)C)ccc1Oc1ccnc(NC(=O)N2CCCC2)c1 [Example 71, N-(4-((2-methyl-6-(3-pivaloylureido)pyridin-3-yl)oxy)pyridin-2-yl)pyrrolidine-1-carboxamide] | < 10 | > 1000 | 100 to 1000 | < 10 | < 10 | < 10 |  |
| CN(C)C1CCN(C(=O)Nc2cc(Oc3ccc(NC(=O)NC(=O)C(C)(C)C)nc3)ccn2)CC1 [Example 76, 4-(dimethylamino)-N-(4-((6-(3-pivaloylureido)pyridin-3-yl)oxy)pyridin-2-yl)piperidine-1-carboxamide] | < 10 | > 1000 | 100 to 1000 | 10 to 100 | < 10 | < 10 |  |
| CN(C)C1CN(C(=O)Nc2cc(Oc3ccc(NC(=O)NC(=O)C(C)(C)C)nc3)ccn2)C1 [Example 77, 3-(dimethylamino)-N-(4-((6-(3-pivaloylureido)pyridin-3-yl)oxy)pyridin-2-yl)azetidine-1-carboxamide] | < 10 | 100 to 1000 | 10 to 100 | < 10 | < 10 | 10 to 100 |  |
| CNC(=O)Nc1cc(Oc2ccc(NC(=O)NC(=O)C(C)(C)C)nc2)ccn1 [Example 79, N-((5-((2-(3-methylureido)pyridin-4-yl)oxy)pyridin-2-yl)carbamoyl)pivalamide] | < 10 | > 1000 | 100 to 1000 | 100 to 1000 | 10 to 100 | 10 to 100 |  |
| CCN1CCN(C(=O)Nc2cc(Oc3ccc(NC(=O)NC(=O)C(C)(C)C)nc3)ccn2)CC1 [Example 80, 4-ethyl-N-(4-((6-(3-pivaloylureido)pyridin-3-yl)oxy)pyridin-2-yl)piperazine-1-carboxamide] | < 10 | > 1000 | 100 to 1000 | 10 to 100 | < 10 | < 10 |  |
| CN1CCN(C2CCN(C(=O)Nc3cc(Oc4ccc(NC(=O)NC(=O)C(C)(C)C)nc4)ccn3)CC2)CC1 [Example 81, 4-(4-methylpiperazin-1-yl)-N-(4-((6-(3-pivaloylureido)pyridin-3-yl)oxy)pyridin-2-yl)piperidine-1-carboxamide] | < 10 | > 1000 | 100 to 1000 | 10 to 100 | < 10 | < 10 |  |
| COCCNC(=O)Nc1cc(Oc2ccc(NC(=O)NC(=O)C(C)(C)C)nc2)ccn1 [Example 82, N-((5-((2-(3-(2-methoxyethyl)ureido)pyridin-4-yl)oxy)pyridin-2-yl)carbamoyl)pivalamide] | 10 to 100 | > 1000 | > 1000 | 100 to 1000 | 10 to 100 | < 10 |  |
| CC(C)(C)C(=O)NC(=O)Nc1ccc(Oc2ccnc(NC(=O)N3CCNCC3)c2)cn1 [Example 83, N-(4-((6-(3-pivaloylureido)pyridin-3-yl)oxy)pyridin-2-yl)piperazine-1-carboxamide] | < 10 | > 1000 | 100 to 1000 | 10 to 100 | < 10 | < 10 | ≥ 50 |
